The source of these data is patent EP0086092A2, “Antifungal compositions” (priority 1982, dated 1983).

The assay deals with Candida albicans B 311. Briefly: disc diffusion, zone of inhibition on seeded agar plates. Type of assay: cell-based. The note with it: for Zone Size Sabouarud Agar / Zone Size YNB agar: Table II, 37°C; for Zone Size Sabouarud Agar: Sabouarud dextrose agar; for Zone Size Sabouarud Agar / Zone Size YNB agar / Zone Size / Zone Size B 311: 16-18 h; for Zone Size YNB agar: lysine; for increase in the intrinsic activity of aculeacin A: Table II test; for Zone Size: Table I, glucose as carbon source, composition of 1 unit by weight aculeacin A + 5 units fatty acid; for Zone Size YNB agar / Zone Size: YNB agar; for Zone Size / Zone Size B 311: 28-37°C. As to the method: The antifungal activity of aculeacin A and the compositions of aculeacin A and fatty acids was measured by disc diffusion.
The effects of a number of fatty acids on the antifungal activity of aculeacin A were determined by utilizing seeded plates of Candida albicans B 311 in yeast nitrogen base (YNB) agar (Difco) with glucose as the carbon source. A composition containing one unit by weight of aculeacin A and 5 units of fatty acid or the sodium salt thereof was spotted on the seeded plates and the size of the zone of inhibition after 16-18 hours incubation at 28-37 °C was measured.
Additional fatty acids were tested to determine , if they increased the intrinsic activity of aculeacin A against C. albicans B 311 utilizing seeded plates of YNB agar (Difco) with lysine as the carbon source and seeded plates of Sabouarud dextrose agar (Difco). Compositions containg one µg of aculeacin A and various amounts of the fatty acid was spotted on the seeded plates and the size of the zone of inhibition after 16-18 hours incubation at 37 °C was measured.
The antifungal effects of compositions containing a single amount of oleic acid as the sodium salt while varying the amounts of aculeacin A were determined by utilizing seeded plates of Candida albicans B 311 in Sabouarud dextrose agar and measuring the zone of inhibition after 16-18 hours incubation at 28-37°C.
The antifungal effects of compositions containing a single amount of aculeacin A while varying the amounts. of oleic acid as the sodium salt were determined by utilizing seeded plates of Candida albicans strains B 311, BC 759 and B 3153A and measuring the zone of inhibition after 16-18 hours at 28-37°C. This test was also performed with linoleic acid and linolenic acid.
The seeded plates of Candida albicans strains B 311, BC 759, and B 3153A were prepared by inoculating 50 ml of trypticase soy broth (BBL) with one ml of the preserved frozen culture and incubating the inoculum at 37°C for 7 hours on a rotary shaker. Two milliliters of this culture were used to inoculate one liter of Sabouarud dextrose agar (Difco) at 50°C and 15 milliliters of the resultant medium poured into 150 mm petri-dishes.
On the technique in general: Agar diffusion results depend on both activity and mobility in agar.

Where [1] appears, read: aculeacin A 0 µg, fatty acid 250 µg alone.
[2] abbreviates: aculeacin A 0 µg, fatty acid 500 µg alone.
Setting [3] is: aculeacin A 0 µg, fatty acid 1000 µg alone.
[4] abbreviates: composition of aculeacin A 1 µg + fatty acid 250 µg.
Where [5] appears, read: composition of aculeacin A 1 µg + fatty acid 500 µg.
Setting [6] is: composition of aculeacin A 1 µg + fatty acid 1000 µg.
Where [7] appears, read: aculeacin A 0 µg, fatty acid 2000 µg alone.
[8] abbreviates: composition of aculeacin A 1 µg + fatty acid 2000 µg.
The mark [9] stands for this setting: aculeacin A 0 µg, fatty acid 50 µg alone.
[10] abbreviates: aculeacin A 0 µg, fatty acid 100 µg alone.
The mark [11] stands for this setting: aculeacin A 0 µg, fatty acid 200 µg alone.
[12] abbreviates: composition of aculeacin A 1 µg + fatty acid 50 µg.
Where [13] appears, read: composition of aculeacin A 1 µg + fatty acid 100 µg.
[14] abbreviates: composition of aculeacin A 1 µg + fatty acid 200 µg.

Marks after values point to notes of the source that are not given here.

For the compound `CCCCCCCC/C=C/CCCCCCCC(=O)O` [Eladic Acid], the “Zone Size Sabouarud Agar” value by setting is: under setting [1], 0 mm; under setting [2], 0 mm; under setting [3], 0 mm; under setting [4], 18 mm; under setting [5], 15 mm; under setting [6], 13 mm. The “Zone Size YNB agar” value reads like this: under setting [1], 0 mm; under setting [2], 0 mm; under setting [3], 0 mm; under setting [4], 13 mm; under setting [5], 13 mm; under setting [6], 13 mm.

Regarding `CCCCC/C=C/C/C=C/CCCCCCCC(=O)O` [Linoelaidic Acid], the “Zone Size Sabouarud Agar” value by setting is: under setting [1], 0 mm; under setting [2], 0 mm; under setting [3], 0 mm; under setting [4], 20* mm; under setting [5], 20* mm; under setting [6], 24* mm. The “Zone Size YNB agar” value is, setting by setting: under setting [1], 0 mm; under setting [2], 0 mm; under setting [3], 0 mm; under setting [4], 26 mm; under setting [5], 17 mm; under setting [6], 16 mm. For the setting “composition of 250 units by weight fatty acid to one unit aculeacin A”, the “increase in the intrinsic activity of aculeacin A” value is “surprising increase in the intrinsic activity of aculeacin A”.

Turning to `CCCCCCCCCCCCCC(=O)O` [Myristic Acid], the “Zone Size” value worked out at 16 mm.

As to `CCCCCC/C=C\CCCCCCCC(=O)O` [Palmitoleic Acid], the “Zone Size” value is listed as 26 mm.

For `CCCCCC/C=C/CCCCCCCCCC(=O)O` [Vaccinic Acid], the “Zone Size Sabouarud Agar” value came out at 0 mm under setting [2]; 0 mm under setting [3]; 0 mm under setting [7]; 25 mm under setting [5]; 25 mm under setting [6]; 26 mm under setting [8]. For the same compound, the “Zone Size YNB agar” value under setting [2] turned out to be 0 mm; the “Zone Size YNB agar” value under setting [3] is listed as 0 mm; the “Zone Size YNB agar” value under setting [7] is recorded as 0 mm; the “Zone Size YNB agar” value under setting [5] is on record as 17 mm; the “Zone Size YNB agar” value under setting [6] was determined as 17 mm; the “Zone Size YNB agar” value under setting [8] turned out to be 17 mm.

With `CCCCCCCC(=O)O` [Caprylic Acid], the “Zone Size” value stood at 16 mm.

Consider Homo-γ-Linoleic Acid, for which the “Zone Size Sabouarud Agar” value is given as 0 mm under setting [9]; 0 mm under setting [10]; 0 mm under setting [11]; 15 mm under setting [12]; 15 mm under setting [13]; 15 mm under setting [14]. Further, the “Zone Size YNB agar” value is 0 mm under setting [9]; 0 mm under setting [10]; 0 mm under setting [11]; 15* mm under setting [12]; 15* mm under setting [13]; 17* mm under setting [14].

Take `CCCCCCCCCCC(O)C(=O)O` (stereo not drawn) [α-Hydroxy Lauric Acid]: the “Zone Size Sabouarud Agar” value is given as “Trace” under setting [1]; 10 (hazy) mm under setting [2]; 10 (hazy) mm under setting [3]; 15 mm under setting [4]; 15 mm under setting [5]; 20 mm under setting [6]. For the same compound, the “Zone Size YNB agar” value is on record as “Trace” under setting [1]; “Trace” under setting [2]; “Trace” under setting [3]; 20 mm under setting [4]; 24 mm under setting [5]; 25 mm under setting [6].

Turning to `CCCCC/C=C\C/C=C\CCCCCCCC(=O)O` [Linoleic Acid], the “Zone Size” value is recorded as 23 mm. For the setting “Table IV-b, aculeacin A 0 µg, fatty acid 225 µg alone”, the “Zone Size B 311” value is “Trace”. Further, the “Zone Size B 311” value (Table IV-b, aculeacin A 0.625 µg + fatty acid 225 µg) is listed as 19 mm. The “Zone Size B 311” value (Tables IV-b, IV-c, aculeacin A 0 µg, fatty acid 28.1 µg alone) came to 0 mm. The “Zone Size B 311” value (Tables IV-b, IV-c, aculeacin A 0 µg, fatty acid 56.2 µg alone) was determined as 0 mm. For the same compound, the “Zone Size B 311” value (Tables IV-b, IV-c, aculeacin A 0 µg, fatty acid 112.5 µg alone) is given as 0 mm. The “Zone Size B 311” value (Tables IV-b, IV-c, aculeacin A 0.625 µg + fatty acid 28.1 µg) came out at 22 mm. Further, the “Zone Size B 311” value (Tables IV-b, IV-c, aculeacin A 0.625 µg + fatty acid 56.2 µg) stood at 22 mm. In addition, the “Zone Size B 311” value (Tables IV-b, IV-c, aculeacin A 0.625 µg + fatty acid 112.5 µg) was 21 mm.

On to `CCCCCC/C=C/CCCCCCCC(=O)O` [Palmitelaidic Acid], for which the “Zone Size Sabouarud Agar” value reads like this: under setting [2], 0 mm; under setting [3], 0 mm; under setting [7], 0 mm; under setting [5], 30 mm; under setting [6], 32 mm; under setting [8], 25 mm. For the same compound, the “Zone Size YNB agar” value turned out to be 0 mm under setting [2]; 0 mm under setting [3]; 0 mm under setting [7]; 20 mm under setting [5]; 20 mm under setting [6]; 22 mm under setting [8].

In the case of `CCCCCCCCCCCCCCCC(=O)O` [Palmitic Acid], the “Zone Size” value was determined as 15 mm.

With γ-Linoleic Acid, the “Zone Size Sabouarud Agar” value is listed as 0 mm under setting [2]; 0 mm under setting [3]; 0 mm under setting [7]; 20 mm under setting [5]; 24 mm under setting [6]; 25 mm under setting [8]. The “Zone Size YNB agar” value was determined as 0 mm under setting [2]; 0 mm under setting [3]; 0 mm under setting [7]; 14 mm under setting [5]; 15 mm under setting [6]; 22 mm under setting [8]. For the setting “composition of 2000 units by weight fatty acid to one unit aculeacin A”, the “increase in the intrinsic activity of aculeacin A” value is given as “surprising increase in the intrinsic activity of aculeacin A”.
